Measured values taken from US10857105B2, “Compounds and compositions for intracellular delivery of therapeutic agents” (ModernaTX, Inc., priority 2017, dated 2020).

Tests used:
modified luciferase = experiment: Luciferase expression in liver, lung, spleen and femur 6 hours after intravenous administration to mice; type: in vivo; conditions: for Total Flux, Femur / Total Flux, Liver / Total Flux, Lung / Total Flux, Spleen: 6 hours after intravenous 0.5 mpk, mice
In short: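 Nanoparticle formulations of the modified luciferase were given intravenously to mice (n=3) at 0.5 mpk. Bioluminescence was measured after 6 hours as total light flux. Standard MC3 formulation and PBS run as controls.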

luciferase (Luc) mRNA [1] = experiment: Luciferase expression (whole body bioluminescence) after intravenous administration to mice; type: in vivo; conditions: intravenous; for Novel lipid/MC3 expression ratio, i.v.: luciferase, 6 hr. time point, relative to MC3 formulation
In short: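 Mice (n=6) received lipid nanoparticle formulations carrying luciferase mRNA intravenously at 0.5 mg/kg. Whole-body bioluminescence was measured at 3, 6 and 24 h. Total flux was taken as area under the curve and expressed relative to a standard MC3 formulation.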

[2] = Particle size and polydispersity index of nanoparticle compositions (Zetasizer Nano ZS); type: physicochemical
In short: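 Size and PDI measured by Zetasizer Nano ZS in 1×PBS (zeta potential in 15 mM PBS). Lipid nanoparticles contained test ionizable lipid:DSPC:cholesterol:PEG-DMG at 50:10:38.5:1.5 mol % with N1-methyl-pseudouridine mRNA encoding luciferase or hEPO.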

IL-6, IP-10 = experiment: Cytokine induction (IL-6, IP-10) in mice 6 hours after intravenous administration; type: in vivo; parameters: unit not given here; conditions: intravenous 0.5 mpk
Text: The introduction of foreign material into a mammalian body induces an innate immune response that promotes cytokine production. Such immune responses to, for example, nanoparticle compositions including therapeutic and/or prophylactics, are undesirable. The induction of certain cytokines is thus measured to evaluate the […] of nanoparticle compositions. The concentrations of various cytokines in mice upon intravenous administration of nanoparticle compositions presented in Table 1A at a dosage of 0.5 mpk was measured at 6 hours. The standard MC3 formulation and a PBS control were also tested. As is evident in Table 7, IL-6 induction was highest for compositions including Compounds 1, 3, 9, 19, and 26, while IP-10 induction was highest for compositions including Compounds 3, 4, 7, 20, and 26. IL-6 induction was lowest for compositions including Compounds 4, 11, 12, and 28. IP-10 induction was lowest for compositions including Compounds 10, 11, 12, 13, 15, 17, and 18.

luciferase (Luc) mRNA [3] = experiment: Luciferase expression after intramuscular administration to mice; type: in vivo; conditions: for Total flux 6 hours after intramuscular administration, 0.01 mpk Dose: Luc mRNA
Text: The numbers 1-7 in this figure correspond to MC3, Compounds 168-170, and 173-175 respectively.
FIGS. 18A and 18B show the results of luciferase expression measured upon intramuscular administration of various nanoparticle compositions to CD-1 mice at 0.01 mpk. FIG. 18A is a bar graph showing total flux at 6 hr after administration. The numbers above each bar indicate the expression ratio relative to MC3. […] Numbers 1-11 in the Figures refer to compositions containing the following: 1: MC3, 2: Compound 143, 3: Compound 49; 4: Compound 113; 5: Compound 61; 6: Compound 72; 7: Compound 75; 8: Compound 71; 9: Compound 128; 10: Compound 156; 11: Compound 157.
The numbers 1-9 in this figure correspond to MC3, and Compounds 178, 181, 182, 218, 198, 200, 233, and 239, respectively.
The total flux (measured by area under the curve, AUC) induced by administration of a formulation including a given lipid relative to that induced by administration of a formulation including MC3 was also measured for several lipids.
Sample formulations including modified luciferase (Luc) mRNA prepared and administered intramuscularly and the resulting expression and immunogenicity were evaluated simultaneously. Formulations including compounds according to Formula (I), (IA), (IB), (II), (IIa), (IIb), (IIc), (IId), (IIe), (IIf), (IIg), or (III) were prepared and administered at dose of and 0.01 mpk.

[4] = Encapsulation efficiency of RNA in nanoparticle compositions (RIBOGREEN assay); type: physicochemical
In short: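 Lipid nanoparticles (ionisable lipid:DSPC:cholesterol:PEG-DMG 50:10:38.5:1.5 mol %) carrying N1-methylpseudouridine luciferase or hEPO mRNA diluted to about 5 μg/mL in TE, pH 7.5, with or without 2% Triton X-100, 15 min at 37° C. RiboGreen fluorescence (ex ~480, em ~520 nm) blank-subtracted; free RNA = intact/disrupted signal.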

hEPO mRNA = experiment: hEPO expression after intravenous administration to rats; type: in vivo, rat; conditions: Table 19B; for [hEPO] Lipid/MC3: ratio to MC3
Procedure: The expression of hEPO and cytokine induction in rats intravenously administered a nanoparticle composition at a dose of 2.0 mpk was measured at 6 h.
The expression of hEPO in rats intravenously administered a nanoparticle composition at a dose of 0.2 mpk or 2.0 mpk was measured at 6 hours. Table 16 summarize the ratio of hEPO expression levels using various nanoparticle compositions as compared to the hEPO expression level using MC3 formulation and the lipid levels in the liver measured 48 hours after administration, as described above. Tables 17 and 18 summarize the lipid levels in the liver and spleen measured 48 hours after administration of Compounds 28, 33, 53, and 54. Liver and spleen levels represent the average values calculated for 3 rats in each group. As is shown in Tables 17 and 18, less than 10% of Compounds 28, 33, 53, and 54 remained in the liver after 48 hours, while greater than 60% of MC3 remained.
Table 19A summarizes the hEPO expression, IP-10 induction, liver and spleen levels, and alanine aminotransferase (ALT) and aspartate aminotransferase (AST) measured upon intravenous administration of formulations including Compounds 48, 49, and 50 to rat at 0.2 and 2 mpk and hEPO mRNA. hEPO concentrations were measured 6 hours after administration, while cytokine induction and liver and spleen levels were measured 48 hours after administration. hEPO and IP-10 concentrations are presented in pg/ml, while liver levels are provided in ng/g. ALT and AST levels are presented in international units.
The expression of hEPO induced by intravenous administration to rats of nanoparticle compositions at various doses was measured at 2, 4, 6, 8, 24, and 48 hour time points. FIGS. 3-6 respectively summarize the hEPO expression measured upon intravenous administration of formulations including Compounds 26, 18, 25, and MC3 to rat at various doses. The lipid levels of Compound 26 in the liver after 48 hours were about 19%.
The expression of hEPO and lipid levels in the liver and spleen in rats intravenously administered a nanoparticle composition at a dose of 0.2 mpk was measured at various time points. Compounds 18 and 25 were selected for comparison with MC3. Lipids were formulated according to the standard MC3 formulation described above. Rats were administered intravenously a single 0.2 mpk dose and expression monitored at 0.25, 0.5, 1, 2, 4, 8, 24, and 48 hours after administration.

[5] = Table 1A, lipid:DSPC:cholesterol:PEG-DMG 50:10:38.5:1.5 mol %
[6] = Table 1E, compositions for subcutaneous administration
[7] = Table 1B, formulated with hEPO mRNA

CCCCCCCCCOC(=O)CCCCCCCN(CCCO)CCCCCCCC(=O)OC(CCCCCCCC)CCCCCCCC [Compound 19, Heptadecan-9-yl 8-((3-hydroxypropyl)(8-(nonyloxy)-8-oxooctyl)amino) octanoate]
Total Flux, Femur (modified luciferase): 1.68E+06 | Total Flux, Liver (modified luciferase): 6.33E+08 | Total Flux, Lung (modified luciferase): 5.99E+06 | Total Flux, Spleen (modified luciferase): 1.77E+07 | Novel lipid/MC3 expression ratio, i.v. (luciferase (Luc) mRNA [1]): 0.96 | Size [2, 5]: 101.1 nm | Size [2, 6]: 80.7 nm | Cytokine induction, IL-6 (IL-6, IP-10): 285.56 | Cytokine induction, IP-10 (IL-6, IP-10): 1468.94

CCCC/C=C\CCC(CC/C=C\CCCC)OC(=O)CCCCCCCN(CCO)CCCCCC(=O)OCCCCCCCCCCC [Compound 61, (5Z,12Z)-heptadeca-5,12-dien-9-yl 8-((2-hydroxyethyl)(6-oxo-6-(undecyloxy)hexyl)amino)octanoate]
Total Flux, Liver (modified luciferase): 6.37E+08 | Total Flux, Lung (modified luciferase): 3.56E+06 | Total Flux, Spleen (modified luciferase): 1.61E+07 | AUC (luciferase (Luc) mRNA [3]; luciferase, intramuscular administration (Table 3H)): 2.30E+09 p/s*h | Size [2, 5]: 82.1 nm | Size [2, 6]: 80.0 nm

CCCCCCCCCOC(=O)CCCCCCCN(CCCCCCCC(=O)OC(CCCCCCCC)CCCCCCCC)CCCn1ccc(=O)[nH]c1=O [Compound 114, Heptadecan-9-yl 8-((3-(2,4-dioxo-3,4-dihydropyrimidin-1(2H)-yl)propyl)(8-(nonyloxy)-8-oxooctyl)amino)octanoate]
Total flux 6 hours after intramuscular administration, 0.01 mpk Dose (luciferase (Luc) mRNA [3]; intramuscular): 3.31E+06 p/s | Size [2, 5]: 65.1 nm

CCCCCCCCCOC(=O)CCCCCCCN(CCCN)CCCCCCCC(=O)OC(CCCCCCCC)CCCCCCCC [Compound 121, Heptadecan-9-yl 8-((3-aminopropyl)(8-(nonyloxy)-8-oxooctyl)amino)octanoate]
Total flux 6 hours after intramuscular administration, 0.01 mpk Dose (luciferase (Luc) mRNA [3]; intramuscular): 1.06E+06 p/s

CCCCCCCCCOC(=O)CCCCCCCN(C)CCCCCCCC(=O)OC(CCCCCCCC)CCCCCCCC [Compound 123, Heptadecan-9-yl 8-(methyl(8-(nonyloxy)-8-oxooctyl)amino)octanoate]
Total Flux, Liver (modified luciferase): 2.50E+08 | Total Flux, Lung (modified luciferase): 1.78E+06 | Total Flux, Spleen (modified luciferase): 4.04E+06 | Total flux 6 hours after intramuscular administration, 0.01 mpk Dose (luciferase (Luc) mRNA [3]; intramuscular): 1.08E+07 p/s

CCCCCCCCC(CCCCCCCC)OC(=O)CCCCCCCN(CCO)CCCCCC(=O)OC(CCCCCCCC)C1CC1 (stereo not shown) [Compound 128, Heptadecan-9-yl 8-((6-((1-cyclopropylnonyl)oxy)-6-oxohexyl)(2-hydroxyethyl)amino)octanoate]
Total Flux, Liver (modified luciferase): 5.98E+09 | Total Flux, Lung (modified luciferase): 2.16E+07 | Total Flux, Spleen (modified luciferase): 7.09E+07 | Novel lipid/MC3 expression ratio, i.m. Luc (luciferase (Luc) mRNA [3]; intramuscular, luciferase, 6 hr. time point, relative to MC3 formulation): 0.99 | Size [2, 5]: 104.1 nm | Size [2, 6]: 73.9 nm

CCCCCCCCCCCCN(CCO)CCCCCCCCCCCC(=O)OC [Compound 137, Methyl 12-(dodecyl(2-hydroxyethyl)amino)dodecanoate]
Total Flux, Femur (modified luciferase): 2.02E+04 | Total Flux, Liver (modified luciferase): 6.48E+04 | Total Flux, Lung (modified luciferase): 1.66E+04 | Flux in the liver (modified luciferase; mice (n=3), intravenous, 0.5 mpk, 6 hours): lowest | Total Flux, Spleen (modified luciferase): 1.32E+05 | Flux at all timepoints measured (luciferase (Luc) mRNA [1]; mice, 0.5 mg/kg, 3, 6 and 24 hours): significantly lower flux | PDI [2, 5]: <1 | Cytokine induction, IL-6 (IL-6, IP-10): 130.82 | Cytokine induction, IP-10 (IL-6, IP-10): 234.35 | EE [4, 5]: 85.7%

CCCCCCCCCOC(=O)CCCCCCCN(CCO)CCCCCCC(=O)OCC(CCCCCCCC)CCCCCCCC [Compound 143, Nonyl 8-((2-hydroxyethyl)(7-((2-octyldecyl)oxy)-7-oxoheptyl)amino)octanoate]
Total Flux, Liver (modified luciferase): 1.76E+09 | Total Flux, Lung (modified luciferase): 3.60E+07 | Total Flux, Spleen (modified luciferase): 1.42E+08 | Novel lipid/MC3 expression ratio, i.v. (luciferase (Luc) mRNA [1]): 0.44 | Size [2, 5]: 98.8 nm | Cytokine induction, IL-6 (IL-6, IP-10): 6.245 | Cytokine induction, IP-10 (IL-6, IP-10): 209.63 | EE [4, 5]: 97.37%

CCCCCCCCC(CCCCCCCC)OC(=O)CCCCCCCN(CCO)CCCCCCCCCC(=O)OCCCCCCC [Compound 189, Heptyl 10-((8-(heptadecan-9-yloxy)-8-oxooctyl)(2-hydroxyethyl)amino)decanoate]
[hEPO] Lipid/MC3 (hEPO mRNA): 3.01E+06 | Size [2, 7]: 95.5 nm | EE [4, 7]: 93.9%

CCCCCCCCCOC(=O)CCCCCCCN(CCCCCCCC(=O)OC(CCCCCCCC)CCCCCCCC)CCCN/C(=N/[N+](=O)[O-])NC [Compound 200, Heptadecan-9-yl (E)-8-((3-(3-methyl-2-nitroguanidino)propyl)(8-(nonyloxy)-8-oxooctyl)amino)octanoate]
hEPO AUC (hEPO mRNA): 2.4e+07 pg·h/mL | [hEPO] Lipid/MC3 (hEPO mRNA): 1.72E+06 | Size [2, 5]: 76.2 nm | Size [2, 7]: 95.3 nm | EE [4, 5]: 97.65% | EE [4, 7]: 97.3%

CCCCCCCCCOC(=O)CCCCCCCN(CCO)CCCCCC(=O)OC1CCC(CCCCC)CC1 (stereo not shown) [Compound 232, Nonyl 8-((2-hydroxyethyl)(6-oxo-6-((4-pentylcyclohexyl)oxy)hexyl)amino)octanoate]
[hEPO] Lipid/MC3 (hEPO mRNA): 0.83 | Size [2, 7]: 150.3 nm | EE [4, 7]: 76.3%
